# Legend:
# KRas G12D [1] = molecular target: T1, KRas G12D (Homo sapiens (Human), UniProt P01116, G12D); assay: KRas G12D Binding Assay (TR-FRET displacement of Cy5 labelled tracer); conditions: GDP-loaded KRAS G12D (amino acids 1:169), 60 minute incubation at 22° C.
# Protocol: After a 60 minute incubation at 22° C., the reaction was measured using a PerkinElmer EnVision multimode plate reader via TR-FRET dual wavelength detection, and the percent of control (POC) calculated using a ratiometric emission factor. […] The POC values were fit to a 4-parameter logistic curve and the IC50 value was determined as the concentration where the curve crosses 50 POC.
# ND stands for “not determined.”
# Target sequence in this assay (P01116 other isoform, or with tags, fused parts or gaps G12D): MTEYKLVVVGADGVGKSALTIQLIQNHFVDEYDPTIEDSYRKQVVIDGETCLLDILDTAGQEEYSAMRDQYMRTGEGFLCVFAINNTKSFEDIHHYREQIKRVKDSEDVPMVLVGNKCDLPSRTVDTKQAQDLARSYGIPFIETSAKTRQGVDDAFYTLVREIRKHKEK
# KRas G12D [2] = molecular target: T1, KRas G12D; assay: KRas G12D Surface Plasmon Resonance (SPR) Binding Assay; conditions: Biacore T200, immobilized biotinylated KRAS protein, 1:1 binding model
# Protocol: Briefly, 1L of 1.05X HBS-Mg buffer (262.5 mM Bioultra Hepes, pH 7.5, 157.5 mM NaCl, 105 mM MgCl2, 0.525 mM TCEP, 0.0305% Brij-35) was prepared and filter sterilized using a 0.22 μm bottle top filter. Approximately 50 mL of 1.05X HBS-Mg buffer was removed and saved for future dilutions. A 50 mL aliquot of DMSO (Sigma Aldrich DMSO Lot. #SHBK2079) was added and continued to stir for 10 minutes, creating the final 1.0X HBS-Mg buffer (250 mM Bioultra Hepes pH 7.5, 150 mM NaCl, 100 mM MgCl2, 0.5 mM TCEP, 0.03% Brij-35).
# Biacore T200 instrument was primed using 1.0X HBS-Mg buffer before docking a GE Streptavidin (SA) chip and then primed two additional times prior to beginning the immobilization step. All immobilized protein mixtures were created using 3-5 mg/mL Biotinylated Avidin-tagged KRAS protein using the following immobilization settings: SA chip type, 1 flow cells per cycle, 720 second contact time, and 5 ul/min flow rate. Normalization of the detector was also performed during the immobilization step using the GE BiaNormalize solution.
# All compounds were diluted to 10 mM in 100% DMSO prior to being diluted 20X in 1.05X buffer. Another 10X dilution was created using 1.0X buffer prior to performing a series of 3X dilutions to create a compound concentration curve using the following assay settings: 20C analysis temperature, General Settings=10 Hz data collection rate and multi-detection; Assay Steps=all set to LMW kinetics; Cycle Types=LMW kinetics (60 s contact time, 120 s dissociation time, 100 ul/min flow rate, extra wash after injection with 50% DMSO, flow path 1,2,3,4); Flow path detection=2-1, 4-3). Data evaluation was performed using the Biacore T200 Evaluation software and data fit to 1:1 binding model. ND=not determined.
# Target sequence in this assay (P01116-2 other isoform, or with tags, fused parts or gaps G12D): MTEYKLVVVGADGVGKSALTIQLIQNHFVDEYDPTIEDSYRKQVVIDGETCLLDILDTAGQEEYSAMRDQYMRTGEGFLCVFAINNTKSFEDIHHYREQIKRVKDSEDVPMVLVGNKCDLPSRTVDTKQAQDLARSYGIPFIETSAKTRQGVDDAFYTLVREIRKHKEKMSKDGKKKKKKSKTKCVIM
SMILES,IC50 (KRas G12D [1]),Kd (KRas G12D [2])
"Cn1ccnc1CCOc1nc(N2C[C@H]3CC[C@@H](C2)N3)c2cnc(-c3cc(O)cc4ccccc34)c(F)c2n1 [Example 3, 4-(4-((1R,5S)-3,8-diazabicyclo[3.2.1]octan-3-yl)-8-fluoro-2-(2-(1-methyl-1H-imidazol-2-yl)ethoxy)pyrido[4,3-d]pyrimidin-7-yl)naphthalen-2-ol]",0.0095 µM,0.0083 µM
"OC[C@@H]1CCCN1c1nc(N2C[C@H]3CC[C@@H](C2)N3)c2cnc(-c3cc(O)cc4ccccc34)c(F)c2n1 [Example 77, 4-(4-((1R,5S)-3,8-diazabicyclo[3.2.1]octan-3-yl)-8-fluoro-2-((S)-2-(hydroxymethyl)pyrrolidin-1-yl)pyrido[4,3-d]pyrimidin-7-yl)naphthalen-2-ol]",3.14 µM,3.07 µM
"CN(C)C1(C)CN(c2nc(N3C[C@H]4CC[C@@H](C3)N4)c3cnc(-c4cccc5cccc(Cl)c45)c(F)c3n2)C1 [Example 127, 1-(4-((1R,5S)-3,8-diazabicyclo[3.2.1]octan-3-yl)-7-(8-chloronaphthalen-1-yl)-8-fluoropyrido[4,3-d]pyrimidin-2-yl)-N,N,3-trimethylazetidin-3-amine]",0.251 µM,0.864 µM
"O=S1(=O)CCC(Oc2nc(N3C[C@H]4CC[C@@H](C3)N4)c3cnc(-c4cc(O)cc5ccccc45)c(F)c3n2)CC1 [Example 71, 4-((4-((1R,5S)-3,8-diazabicyclo[3.2.1]octan-3-yl)-8-fluoro-7-(3-hydroxynaphthalen-1-yl)pyrido[4,3-d]pyrimidin-2-yl)oxy)tetrahydro-2H-thiopyran 1,1-dioxide]",0.126 µM,0.138 µM
"CC1CCc2cccc(-c3ncc4c(N5CC6CCC(C5)N6)nc(OC[C@@H]5CCCN5C)nc4c3F)c21 (stereo partly drawn) [Example 174, 4-((1R,5S)-3,8-diazabicyclo[3.2.1]octan-3-yl)-8-fluoro-7-(3-methyl-2,3-dihydro-1H-inden-4-yl)-2-(((S)-1-methylpyrrolidin-2-yl)methoxy)pyrido[4,3-d]pyrimidine]",0.0639 µM,0.186 µM
"Oc1cc(-c2ncc3c(N4C[C@H]5CC[C@@H](C4)N5)nc(OCc4ccccn4)nc3c2F)c2ccccc2c1 [Example 89, 4-(4-((1R,5S)-3,8-diazabicyclo[3.2.1]octan-3-yl)-8-fluoro-2-(pyridin-2-ylmethoxy)pyrido[4,3-d]pyrimidin-7-yl)naphthalen-2-ol]",0.679 µM,4.31 µM
"CN1C[C@H](F)C[C@H]1COc1nc(N2C[C@H]3CC[C@@H](C2)N3)c2cnc(-c3cc(O)cc4ccccc34)c(F)c2n1 [Example 16, 4-(4-((1R,5S)-3,8-diazabicyclo[3.2.1]octan-3-yl)-8-fluoro-2-(((2S,4R)-4-fluoro-1-methylpyrrolidin-2-yl)methoxy)pyrido[4,3-d]pyrimidin-7-yl)naphthalen-2-ol]",0.0541 µM,0.0313 µM
"CN1CCC[C@H]1COc1nc(N2C[C@H]3CC[C@@H](C2)N3)c2cnc(-c3cccc4ccc(F)c(Cl)c34)c(F)c2n1 [Example 44, 4-((1R,5S)-3,8-diazabicyclo[3.2.1]octan-3-yl)-7-(8-chloro-7-fluoronaphthalen-1-yl)-8-fluoro-2-(((S)-1-methylpyrrolidin-2-yl)methoxy)pyrido[4,3-d]pyrimidine]",0.0337 µM,0.0317 µM
"Oc1cc(-c2ncc3c(N4C[C@H]5CC[C@@H](C4)N5)nc(OCc4cccnc4)nc3c2F)c2ccccc2c1 [Example 99, 4-(4-((1R,5S)-3,8-diazabicyclo[3.2.1]octan-3-yl)-8-fluoro-2-(pyridin-3-ylmethoxy)pyrido[4,3-d]pyrimidin-7-yl)naphthalen-2-ol]",0.624 µM,0.897 µM
"Oc1cc(-c2ncc3c(N4C[C@H]5CC[C@@H](C4)N5)nc(OCC4(C(F)(F)F)CCCC4)nc3c2F)c2ccccc2c1 [Example 46, 4-(4-((1R,5S)-3,8-diazabicyclo[3.2.1]octan-3-yl)-8-fluoro-2-((1-(trifluoromethyl)cyclopentyl)methoxy)pyrido[4,3-d]pyrimidin-7-yl)naphthalen-2-ol]",0.721 µM,0.798 µM
"CN1CCC[C@H]1COc1nc(N2C[C@H]3CC[C@@H](C2)N3)c2cnc(-c3cccc4ccccc34)c(F)c2n1 [Example 20, 4-((1R,5S)-3,8-diazabicyclo[3.2.1]octan-3-yl)-8-fluoro-2-(((S)-1-methylpyrrolidin-2-yl)methoxy)-7-(naphthalen-1-yl)pyrido[4,3-d]pyrimidine]",0.692 µM,0.967 µM
"Fc1c(-c2cccc3cccc(Cl)c23)ncc2c(N3CC4CCC(C3)N4)nc(OC[C@@]34CCCN3C[C@H](F)C4)nc12 (stereo in doubt) [Example 134, 4-((1R,5S)-3,8-diazabicyclo[3.2.1]octan-3-yl)-7-(8-chloronaphthalen-1-yl)-8-fluoro-2-((2-fluorotetrahydro-1H-pyrrolizin-7a(5H)-yl)methoxy)pyrido[4,3-d]pyrimidine]",0.0037 µM,0.0069 µM
"Oc1cc(-c2ncc3c(N4C[C@H]5CC[C@@H](C4)N5)nc(OCCc4ccc(F)cn4)nc3c2F)c2ccccc2c1 [Example 102, 4-(4-((1R,5S)-3,8-diazabicyclo[3.2.1]octan-3-yl)-8-fluoro-2-(2-(5-fluoropyridin-2-yl)ethoxy)pyrido[4,3-d]pyrimidin-7-yl)naphthalen-2-ol]",0.0958 µM,0.259 µM
"COCCCOc1nc(N2C[C@H]3CC[C@@H](C2)N3)c2cnc(-c3cc(O)cc4ccccc34)c(F)c2n1 [Example 68, 4-(4-((1R,5S)-3,8-diazabicyclo[3.2.1]octan-3-yl)-8-fluoro-2-(3-methoxypropoxy)pyrido[4,3-d]pyrimidin-7-yl)naphthalen-2-ol]",0.257 µM,0.293 µM
"Cn1ccnc1CCOc1nc(N2C[C@H]3CC[C@@H](C2)N3)c2cnc(-c3cccc4ccccc34)c(F)c2n1 [Example 94, 4-((1R,5S)-3,8-diazabicyclo[3.2.1]octan-3-yl)-8-fluoro-2-(2-(1-methyl-1H-imidazol-2-yl)ethoxy)-7-(naphthalen-1-yl)pyrido[4,3-d]pyrimidine]",3.65 µM,7.46 µM
"COc1nc(N2C[C@H]3CC[C@@H](C2)N3)c2cnc(-c3cc(O)cc4ccccc34)c(F)c2n1 [Example 105, 4-(4-((I R,5S)-3,8-diazabicyclo[3.2.1]octan-3-yl)-8-fluoro-2-methoxypyrido[4,3-d]pyrimidin-7-yl)naphthalen-2-ol]",0.867 µM,2.26 µM
"CCO[C@@H]1C[C@@H](COc2nc(N3C[C@H]4CC[C@@H](C3)N4)c3cnc(-c4cccc5cccc(Cl)c45)c(F)c3n2)N(C)C1 [Example 43, 4-((1R,5S)-3,8-diazabicyclo[3.2.1]octan-3-yl)-7-(8-chloronaphthalen-1-yl)-2-(((2S,4R)-4-ethoxy-1-methylpyrrolidin-2-yl)methoxy)-8-fluoropyrido[4,3-d]pyrimidine]",0.0722 µM,0.188 µM
"CC1(N)CN(c2nc(N3C[C@H]4CC[C@@H](C3)N4)c3cnc(-c4cc(O)cc5ccccc45)c(F)c3n2)C1 [Example 124, 4-(2-(3-amino-3-methylazetidin-1-yl)-4-((1R,5S)-3,8-diazabicyclo[3.2.1]octan-3-yl)-8-fluoropyrido[4,3-d]pyrimidin-7-yl)naphthalen-2-ol]",0.0086 µM,0.0227 µM
